# Test results published in PMC4078884 (Chemical science (Royal Society of Chemistry : 2010), 2014).
# Experiments:
# [1] = molecular target: T1, EcIspG (Escherichia coli, UniProt P62620); assay: CW-EPR; assay type: binding; details: 80 eq dithionite, 8 K
# T1 sequence (P62620 1-372): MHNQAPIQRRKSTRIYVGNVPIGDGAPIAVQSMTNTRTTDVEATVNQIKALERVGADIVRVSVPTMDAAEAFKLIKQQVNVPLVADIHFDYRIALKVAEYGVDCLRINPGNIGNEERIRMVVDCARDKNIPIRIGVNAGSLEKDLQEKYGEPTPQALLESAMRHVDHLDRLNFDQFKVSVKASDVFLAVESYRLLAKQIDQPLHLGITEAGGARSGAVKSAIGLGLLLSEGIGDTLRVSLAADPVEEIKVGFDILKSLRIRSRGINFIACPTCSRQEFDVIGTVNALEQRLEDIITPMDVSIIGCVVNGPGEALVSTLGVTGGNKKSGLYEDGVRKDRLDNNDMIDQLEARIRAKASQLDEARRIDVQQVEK
# [2] = molecular target: T2, PaIspG (Pseudomonas aeruginosa, UniProt Q9HXJ4); assay: CW-EPR; assay type: binding; details: 80 eq dithionite, 8 K
# T2 sequence (Q9HXJ4 1-371): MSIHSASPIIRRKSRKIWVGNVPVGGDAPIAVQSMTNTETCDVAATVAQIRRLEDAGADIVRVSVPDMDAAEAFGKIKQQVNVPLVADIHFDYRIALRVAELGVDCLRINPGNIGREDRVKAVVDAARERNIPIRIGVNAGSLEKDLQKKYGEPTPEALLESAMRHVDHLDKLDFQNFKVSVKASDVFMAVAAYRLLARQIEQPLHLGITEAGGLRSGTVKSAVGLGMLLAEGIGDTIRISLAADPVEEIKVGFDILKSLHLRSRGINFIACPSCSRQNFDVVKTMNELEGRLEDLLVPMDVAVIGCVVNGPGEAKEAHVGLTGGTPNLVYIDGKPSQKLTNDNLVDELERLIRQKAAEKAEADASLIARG
smiles,measurement,setting,value
"C/C(=C\COP(=O)(O)OP(=O)(O)O)CS [compound 8, thiolo-HMBPP]",CW-EPR,[1],"E. coli (A, D)"
same,CW-EPR,[2],"P. aeruginosa (B, E)"
